From patent publication US20090123925A1, “CANCER THERAPY PROGNOSIS AND TARGET” (priority 2005, published 2009)
Read-outs that look alike come from different tables or passages of the source. Where a SMILES comes first, the peptide text is derived from it. The star is where a group is joined. Cbz = O=C(OCc1ccccc1)*; CH2F = FC*

Legend:
Assay type in all cases: cell-based, human
[1] = tested on: carboplatin-resistant A549 cells (A549car15, A549car17.5); conditions: for Fold change of IC50 in resistant line vs. A549 parental line: A549car15 (exposed up to 15 μM carboplatin), MTT, 72 hours
Description: (§1) The A549 cisplatin-, carboplatin- and oxaliplatin-cells were derived from the A549WT cell lines, by maintaining the cells in increasing concentrations of the relevant drug. […] This generated cisplatin-(A549cis1, A549cis2.5, A549cis5, A549cis7.5 and A549cis10), carboplatin-(A549car1, A549car2.5, A549car5, A549car10, A549car15 and A549car17.5) and oxaliplatin-(A549oxa2.5, A549oxa3, A549ox3.5, A549ox5 and A549oxa7.5) resistant A549 cell lines. The cells were exposed to each drug concentration for at least a 4-week period and allowed to recover in drug-free medium for a minimum of 2 weeks, before culture in a higher concentration of drug.
(§2) Cytotoxicity of each platinum drug in each cell line was determined by MTT (3-(4,5-dimethylthiazole-2-yl)-2,5-diphenyl tetrazolium bromide, Sigma) assay. Cells were seeded onto 96-well plates at a density of 2-3×10^3 cells per well and cultured for 24 hours. Then cells were incubated with relevant concentrations of carboplatin, cisplatin or oxaliplatin for 72 hours. After treatment, 30 μl of MTT (5 mg/ml) in PBS was incubated with cells in a 96-well plate for 4 h at 37° C. Subsequently, the medium containing MTT was removed, and 200 μl of DMSO was added to each well and shaken for 15 minutes. Spectrophotometric absorbance of each well was measured at 560 nm and 630 nm on a microplate reader (Bio-Rad, model 3550). GraphPad Prism 2.01 was used to calculate the IC50 of each platinum drug in different cell lines.
(§3) CA-074 Methyl ester (Sigma) was used to inhibit cathepsin B and caspase inhibitor I: (Z-VAD (OMe)-FMK, Calbiochem, UK) to inhibit caspases. Cathepsin L and K selective inhibitors (Cathepsin L inhibitor IV: Z-FF-FMK and Cathepsin K inhibitor I: 1,3-Bis (N-carbobenzoyloxy-L-leucyl) amino acetone, respectively (Calbiochem, UK)) and non-selective broad range cathepsin inhibitor (E-64d; (2S, 3S)-trans-epoxysuccinyl-L-leucylamido-3-methylbutane ethyl ester (Sigma, UK) were used to inhibit cysteine proteases.

[2] = tested on: cisplatin-resistant A549 cells (A549cis7.5, A549cis10); conditions: for Fold change of IC50 in resistant line vs. A549 parental line: A549cis7.5 (exposed up to 7.5 μM cisplatin), MTT, 72 hours
Description: as §1, §2, §3

[3] = tested on: oxaliplatin-resistant A549 cells (A549ox3, A549ox7.5); conditions: MTT, 72 hours
Description: as §1, §2, §3

A549 wt cells = conditions: wild-type or resistant A549 NSCLC cells; data not shown
Experimental: The human NSCLC cell line A549 [from ATCC; CCL-185] was maintained in F12-K and RPMI 1640 (supplemented with 10% foetal bovine serum (FBS), 100 U/ml penicillin, and 100 μg/ml streptomycin at 37° C., 5% CO2) in an incubator.
as §2
CA-074 Methyl ester (Sigma) was used to inhibit cathepsin B and caspase inhibitor I: (Z-VAD (OMe)-FMK, Calbiochem, UK) to inhibit caspases. […]

[4] = A549ox7.5 (exposed up to 7.5 μM oxaliplatin)

| SMILES | Level of resistance at higher drug concentration ([1]; A549 cells exposed to 17.5 μM carboplatin, compared with 15 μM) | Fold change of IC50 in resistant line vs. A549 parental line [2] | Fold change of IC50 in resistant line vs. A549 parental line [3, 4] | Effect of caspase inhibition on sensitivity to platinum drugs (A549 wt cells) | Fold change of IC50 in resistant line vs. A549 parental line [1] | Level of resistance at higher drug concentration ([2]; A549 cells exposed to 10 μM cisplatin, compared with 7.5 μM) | Fold change of IC50 in resistant line vs. A549 parental line ([3]; A549 cells exposed up to 3 μM oxaliplatin) |
| --- | --- | --- | --- | --- | --- | --- | --- |
| N.N.O=C([O-])C1(C(=O)[O-])CCC1.[Pt+2] [carboplatin] | remained unchanged | 3.4 fold | 1.5 fold | – | – | – | – |
| COC(=O)C[C@H](NC(=O)[C@H](C)NC(=O)[C@@H](NC(=O)OCc1ccccc1)C(C)C)C(=O)CF [caspase inhibitor I, Z-VAD (OMe)-FMK] (Cbz-Val-Ala-Asp(OMe)-CH2F) | – | – | – | did not alter | – | – | – |
| N.N.[Cl][Pt][Cl] [cisplatin] | – | – | 1.8 fold | – | 3.02 fold | remained unchanged | – |
| O=C1[O][Pt]2([NH][C@@H]3CCCC[C@H]3[NH]2)[O]C1=O [oxaliplatin] | – | 0.54 fold | 5.3 fold | – | 0.47 fold | – | 3 fold |
